Test results taken from ChEMBL document CHEMBL1158544, “The evaluation of quinonoid compounds against Trypanosoma cruzi: synthesis of imidazolic anthraquinones, nor-beta-lapachone derivatives and beta-lapachone-based 1,2,3-triazoles” (Bioorg Med Chem, 2010).

Assays:
PBMC = test: Cytotoxicity against human PBMC after 72 hrs by alamar blue assay; format: cell-based
Trypanosoma cruzi = test: Antitrypanosomal activity against Trypanosoma cruzi Y blood stream trypomastigotes after 24 hrs; format: functional, organism-based

O=C1c2ccccc2C(=O)c2c1ccc1nc(-c3ccc(-c4ccccc4)cc3)[nH]c21
IC50 (PBMC): 12 µM | IC50 (Trypanosoma cruzi): > 4000 µM

CC1(C)OC2=C(C(=O)C(=O)c3ccccc32)C1Nc1ccc(F)c([N+](=O)[O-])c1 (configuration not stated)
IC50 (Trypanosoma cruzi): 526 µM

COc1ccc(-c2cn([C@H]3C4=C(OC(C)(C)[C@@H]3Br)c3ccccc3C(=O)C4=O)nn2)cc1
IC50 (PBMC): 2.1 µM | IC50 (Trypanosoma cruzi): 106 µM

CC1(C)OC2=C(C(=O)C(=O)c3ccccc32)C1Nc1ccc(Br)cc1Br (configuration not stated)
IC50 (PBMC): 2.1 µM | IC50 (Trypanosoma cruzi): 24.9 µM

CC(C)=CCC1=C(OC2(CC=C(C)C)C(=O)C(=O)c3ccccc3C2=O)C(=O)c2ccccc2C1=O (configuration not stated)
IC50 (PBMC): 12 µM | IC50 (Trypanosoma cruzi): 233 µM

CC(C)=CCC1=C(O)C(=O)c2ccccc2C1=O [LAPACHOL]
IC50 (PBMC): 2.1 µM

CC1(C)OC2=C(C(=O)C(=O)c3ccccc32)C1OC1CCCCC1 (configuration not stated)
IC50 (PBMC): 2.1 µM | IC50 (Trypanosoma cruzi): 558 µM

Cc1cc([N+](=O)[O-])ccc1NC1C2=C(OC1(C)C)c1ccccc1C(=O)C2=O (configuration not stated)
IC50 (PBMC): 2.1 µM | IC50 (Trypanosoma cruzi): 156 µM

Cc1ccc([N+](=O)[O-])cc1NC1C2=C(OC1(C)C)c1ccccc1C(=O)C2=O (configuration not stated)
IC50 (PBMC): 12 µM | IC50 (Trypanosoma cruzi): 284 µM

CC(C)=CC1=C(O)C(=O)c2ccccc2C1=O
IC50 (PBMC): 2.1 µM

CC1(C)OC2=C(C(=O)C(=O)c3ccccc32)C1Nc1ccccc1[N+](=O)[O-] (configuration not stated)
IC50 (PBMC): 2.1 µM | IC50 (Trypanosoma cruzi): 55.6 µM

CC1(C)CC2=C(O1)c1ccccc1C(=O)C2=O [NOR-BETA-LAPACHONE]
IC50 (PBMC): 2.1 µM | IC50 (Trypanosoma cruzi): > 4800 µM

CC1(C)OC2=C(C(=O)C(=O)c3ccccc32)[C@H](n2cc(-c3ccc(F)cc3)nn2)[C@H]1Br
IC50 (PBMC): 2.1 µM | IC50 (Trypanosoma cruzi): 220 µM

CC1(C)CCC2=C(O1)c1ccccc1C(=O)C2=O [LAPACHONE]
IC50 (PBMC): 2.1 µM | IC50 (Trypanosoma cruzi): 392 µM

O=C1c2ccccc2C(=O)c2c1ccc1nc(-c3cccc4ccccc34)[nH]c21
IC50 (PBMC): 2.1 µM | IC50 (Trypanosoma cruzi): > 4000 µM

CC1(C)OC2=C(C(=O)C(=O)c3ccccc32)[C@H](n2cc(-c3ccc(Br)cc3)nn2)[C@H]1Br
IC50 (PBMC): 2.1 µM | IC50 (Trypanosoma cruzi): 440 µM

CC1(C)OC2=C(C(=O)C(=O)c3ccccc32)C1Nc1ccc(Cl)c(Cl)c1 (configuration not stated)
IC50 (PBMC): 2.1 µM | IC50 (Trypanosoma cruzi): 43.8 µM

CC(C)COC1C2=C(OC1(C)C)c1ccccc1C(=O)C2=O (configuration not stated)
IC50 (PBMC): 2.1 µM | IC50 (Trypanosoma cruzi): 47.2 µM

CC1(C)OC2=C(C(=O)C(=O)c3ccccc32)[C@H](N=[N+]=[N-])[C@H]1Br
IC50 (PBMC): 2.1 µM | IC50 (Trypanosoma cruzi): 23.4 µM

Cc1ccc(-c2nc3ccc4c(c3[nH]2)C(=O)c2ccccc2C4=O)cc1
IC50 (PBMC): 12 µM | IC50 (Trypanosoma cruzi): > 4000 µM

CC1(C)OC2=C(C(=O)C(=O)c3ccccc32)[C@H](n2cc(-c3ccccc3)nn2)[C@H]1Br
IC50 (PBMC): 2.1 µM | IC50 (Trypanosoma cruzi): 313 µM

O=C1c2ccccc2C(=O)c2c1ccc1nc(-c3ccccc3)[nH]c21
IC50 (PBMC): 12 µM | IC50 (Trypanosoma cruzi): > 2000 µM

COc1ccc(NC2C3=C(OC2(C)C)c2ccccc2C(=O)C3=O)c([N+](=O)[O-])c1 (configuration not stated)
IC50 (PBMC): 2.1 µM | IC50 (Trypanosoma cruzi): 59.6 µM

CC(C)OC1C2=C(OC1(C)C)c1ccccc1C(=O)C2=O (configuration not stated)
IC50 (PBMC): 2.1 µM | IC50 (Trypanosoma cruzi): 268 µM

CC1(C)OC2=C(C(=O)c3ccccc3C2=O)[C@@H](N=[N+]=[N-])[C@@H]1Br
IC50 (PBMC): 2.1 µM | IC50 (Trypanosoma cruzi): 248 µM
